Consider three compounds from US20250195601A1, “TURMERIC OIL ESSENTIAL-OIL BISABOLENE SESQUITERPENOIDS IN THE TREATMENT OF NON-NEURODEGENERATIVE DISEASES” (UNIVERSIDAD DE CUENCA, priority 2023, published 2025).

Assay type in all cases: in vivo, human
The test system of experiment [1] is patient with mixed cerebral palsy, epilepsy, constipation, mental retardation. Put plainly: Clinical course, Case 4. To be noted: with baclofen, before turmeric oil. The source says:
Patient. They were the child of non-consanguineous parents, born of a twin pregnancy by cesarean section at 30 weeks' gestation. The patient had multiple complications in their neonatal period with prolonged mechanical ventilation, including neuro-infection and neonatal seizures.
Central hypotonia and peripheral hypertonia, dystonia and dyskinesia, ROT++++/++, bilateral plantar flexor reflex were present.
No advances regarding […] neurological condition were identified. The pharmacological therapy included baclofen to improve muscle tone and levetiracetam to control seizures.
Scoliosis, retractions, and joint deformities were still visible. Dystonias and dyskinesias were persistent.
In the subsequent 7.5 years, the patient had epileptic seizures of irregular onset and insufficient advances in their motor development. Administration of turmeric oil began with a dose of 27 mg per day.

The subject of experiment [2] is patient with executive functions impairment, epilepsy, mental retardation, attention deficit. Put plainly: Clinical course, Case 1. As to conditions: before turmeric oil. How it is done: […], due to their academic failure and their refusal to continue taking methylphenidate, it was decided to start using turmeric oil in a dosage of 36 mg/day.
The turmeric oil and two anticonvulsants (valproic acid and clobazam) were administered to the patient.
Conversely, a cognitive enrichment in the patient's profile was evident. This enhancement was reflected in their academic performance and […] general life development. The patient presented seizures relapse and maintained antiepileptic drugs administration.

In experiment [3] the test system is patient with Guillain-Barré syndrome, flaccid tetraplegia. Kind of experiment: Clinical course and muscle strength, Case 5. To be noted: after three weeks of hospitalization, before turmeric oil. The source says: Patient. They were the child of non-consanguineous parents. Parents referred that one day the patient woke up but could not walk. Noteworthy, the day before this event, they received a COVID vaccine. The patient was taken to a hospital and evaluated in the emergency room. Demyelinating motor polyradiculoneuropathy of severe degree with distal predominance, more significant in lower extremities was reported after performing electromyography and nerve conduction velocity analysis. On the third day at the hospital, the patient lost walking, sitting, neck control and lower and upper extremities mobility. No mechanical ventilation was required.
Thus, the patient was prostrate, and it was recommended to start administering turmeric oil in a dose of 21.6 mg per day.

For the compound `CC[C@@H](C(N)=O)N1CCCC1=O` [levetiracetam], the seizures result in experiment [1] is “not controlled”.

Regarding `COC(=O)C(c1ccccc1)C1CCCCN1` (stereo not drawn) [prolonged-release methylphenidate, methylphenidate], the “result of methylphenidate treatment” value in experiment [2] is given as “poor results”. Take gamma globulin: the condition at discharge result in experiment [3] is “no improvement”.
